Results on 33 compounds are retold here after patent publication US20100063047A1 (KALYPSYS, INC., priority 2008, published 2010).

The target in one test is T1, human H1 (Homo sapiens, UniProt P35367).
T1 construct: host or cells: CHO-K1, also expressing mitochondrion-targeted aequorin
Briefly: In vitro histamine H1 receptor cell-based aequorin bioluminescence antagonist assay. Particulars: CHO-K1 cells expressing human H1 and aequorin; histamine at EC80; read-out: H1 Antagonist EC50. Put shortly: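 CHO-K1 cells stably expressing human H1 or H4 plus mitochondrial aequorin (H4 also with Gα16), loaded with 5 μM coelenterazine-h for 4 h at ~21 °C. Compounds preincubated 15 min at room temperature, then histamine at EC80 added.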

The target of another test is T2, human H4 (Homo sapiens, UniProt Q9H3N8).
T2 construct: host or cells: CHO-K1, also expressing mitochondrion-targeted aequorin and human Gα16
Briefly: In vitro histamine H4 receptor cell-based aequorin bioluminescence antagonist assay. Particulars: CHO-K1 cells expressing human H4, aequorin and Gα16; histamine at EC80. The procedure:
In vitro Histamine Receptor Cell-Based Assays
The cell-based assays utilize an aequorin dependent bioluminescence signal. Doubly-transfected, stable CHO—K1 cell lines expressing human H1 or H4, mitochondrion-targeted aequorin, and (H4 only) human G protein Gα16 are obtained from Perkin-Elmer. Cells are maintained in F12 (Ham's) growth medium, containing 10% (vol./vol.) fetal bovine serum, penicillin (100 IU/mL), streptomycin (0.1 mg/mL), zeocin (0.25 mg/mL) and geneticin (0.40 mg/mL). Cell media components are from Invitrogen, Inc. One day prior to assay, the growth medium is replaced with the same, excluding zeocin and geneticin.
For assay preparation, growth medium is aspirated, and cells are rinsed with calcium-free, magnesium-free phosphate-buffered saline, followed by two to three minute incubation in Versene (Invitrogen, Inc.) at 37° C. Assay medium (DMEM:F12 [50:50], phenol-red free, containing 1 mg/mL protease-free bovine serum albumin) is added to collect the released cells, which are then centrifuged. The cell pellet is re-suspended in assay medium, centrifuged once more, and re-suspended in assay medium to a final density of 5×10^6 cells/mL. Coelenterazine-h dye (500 μM in ethanol) is added to a final concentration of 5 μM, and mixed immediately. The conical tube containing the cells is then wrapped with foil to protect the light-sensitive dye. The cells are incubated for four hours further at room temperature (approximately 21° C.) with end-over-end rotation to keep them in suspension.
Just before assay, the dye-loaded cells are diluted to 0.75×10^6 cells/mL (H1 receptor) or 1.5×10^6 cells/mL (H4 receptor) with additional assay medium. Cells are dispensed to 1536 well micro-titer plates at 3 μL/well. To assay receptor antagonism, 60 nl of 100× concentration test compounds in 100% dimethyl sulfoxide (DMSO) are dispensed to the wells, one compound per well, by passive pin transfer, and the plates are incubated for 15 minutes at room temperature. […] The pipette dispenses 3 μL/well of agonist (histamine, at twice the final concentration, where final concentration is a previously determined EC80) in assay medium, with concurrent bioluminescence detection. Agonist activity of test compounds is excluded by separate assays that measure response to test compounds immediately, without added histamine agonist.
CCD image capture on the Lumilux includes a 5 second baseline read prior to agonist addition, and generally a 40 second read per plate after agonist addition. A decrease in bioluminescence signal (measured either as area-under-the-curve, or maximum signal amplitude minus minimum signal amplitude) correlates with receptor antagonism in a dose dependent manner. The negative control is DMSO lacking any test compound. For antagonist assays, the positive controls are diphenhydramine (2-Diphenylmethoxy-N,N-dimethylethylamine, 10 μM final concentration, H1 receptor) or JNJ7777120 (1-[(5-Chloro-1H-indol-2-yl)carbonyl]-4-methyl-piperazine, 10 μM final concentration, H4 receptor). Efficacy is measured as a percentage of positive control activity.

T1 sequence (P35367 whole entry): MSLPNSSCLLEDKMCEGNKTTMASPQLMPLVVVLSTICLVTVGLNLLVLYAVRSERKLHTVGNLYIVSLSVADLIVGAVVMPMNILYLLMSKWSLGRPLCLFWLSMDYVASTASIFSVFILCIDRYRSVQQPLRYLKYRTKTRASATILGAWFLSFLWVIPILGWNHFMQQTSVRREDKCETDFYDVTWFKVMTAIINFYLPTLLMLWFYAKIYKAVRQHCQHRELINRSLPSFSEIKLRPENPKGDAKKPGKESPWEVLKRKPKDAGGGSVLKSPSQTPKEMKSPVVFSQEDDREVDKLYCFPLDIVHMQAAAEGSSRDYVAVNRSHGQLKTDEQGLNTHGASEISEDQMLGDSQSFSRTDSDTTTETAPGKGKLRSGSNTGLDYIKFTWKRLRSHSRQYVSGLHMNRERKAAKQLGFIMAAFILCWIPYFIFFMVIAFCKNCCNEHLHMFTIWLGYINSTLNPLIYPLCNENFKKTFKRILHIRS
T2 sequence (Q9H3N8 whole entry): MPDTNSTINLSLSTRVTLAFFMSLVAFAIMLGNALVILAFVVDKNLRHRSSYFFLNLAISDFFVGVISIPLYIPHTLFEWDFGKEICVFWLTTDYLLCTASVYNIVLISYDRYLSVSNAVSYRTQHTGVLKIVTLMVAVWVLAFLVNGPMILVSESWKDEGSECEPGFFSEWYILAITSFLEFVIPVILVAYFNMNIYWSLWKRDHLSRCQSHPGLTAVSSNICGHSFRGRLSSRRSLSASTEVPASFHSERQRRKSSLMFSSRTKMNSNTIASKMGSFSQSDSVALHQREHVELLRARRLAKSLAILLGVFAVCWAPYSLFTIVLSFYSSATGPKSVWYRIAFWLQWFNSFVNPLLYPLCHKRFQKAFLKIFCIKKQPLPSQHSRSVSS

Turning to `Cc1csc2ncnc(NCCCCO)c12` [Example 74, 4-({5-methylthieno[2,3-d]pyrimidin-4-yl}amino)butan-1-ol], the EC50 at human H1 and on human H4 was above 10 µM in each case.

As for `Cc1csc2ncnc(NC3CONC3=O)c12` (stereo not drawn) [Example 80, 4-({5-methylthieno[2,3-d]pyrimidin-4-yl}amino)-1,2-oxazolidin-3-one], the concentration giving a half-maximal response (EC50) on human H1 and on human H4 was above 10 µM each time.

For the compound `Cc1csc2ncnc(NN3CCOCC3)c12` [Example 81, N-{5-methylthieno[2,3-d]pyrimidin-4-yl}morpholin-4-amine], the EC50 at human H1 and at human H4 was above 10 µM in each case.

For the compound `Cc1csc2ncnc(NCc3cccnc3)c12` [Example 84, 5-methyl-N-(pyridin-3-ylmethyl)thieno[2,3-d]pyrimidin-4-amine], the EC50 at human H1 and on human H4 was above 10 µM each time.

In the case of `Cc1csc2ncnc(NCc3ccncc3)c12` [Example 86, 5-methyl-N-(pyridin-4-ylmethyl)thieno[2,3-d]pyrimidin-4-amine], the EC50 on human H1 and on human H4 was above 10 µM each time.

Regarding `Cc1csc2ncnc(NCCN3CCCC3)c12` [Example 92, 5-methyl-N-[2-(pyrrolidin-1-yl)ethyl]thieno[2,3-d]pyrimidin-4-amine], the EC50 on human H1 and at human H4 was above 10 µM in each case.

In the case of `Cc1csc2ncnc(NN3CCN(C)CC3)c12` [Example 93, 4-methyl-N-{5-methylthieno[2,3-d]pyrimidin-4-yl}piperazin-1-amine], the EC50 at human H1 and at human H4 was above 10 µM in each case.

Regarding `CCN(CC)CCNc1ncnc2scc(C)c12` [Example 94, diethyl[2-({5-methylthieno[2,3-d]pyrimidin-4-yl}amino)ethyl]amine], the 50% effective concentration (EC50) at human H1 and on human H4 was above 10 µM throughout.

Turning to `Cc1cnc(CNc2ncnc3scc(C)c23)cn1` [Example 101, 5-methyl-N-[(5-methylpyrazin-2-yl)methyl]thieno[2,3-d]pyrimidin-4-amine], the EC50 at human H1 and at human H4 was above 10 µM in each case.

In the case of `Cc1csc2ncnc(NCCCn3ccnc3)c12` [Example 105, N-[3-(1H-imidazol-1-yl)propyl]-5-methylthieno[2,3-d]pyrimidin-4-amine], the concentration for a half-maximal effect (EC50) on human H1 and at human H4 was above 10 µM throughout.

With `Cc1csc2ncnc(NCCC3CCCN3C)c12` (stereo not drawn) [Example 106, 5-methyl-N-[2-(1-methylpyrrolidin-2-yl)ethyl]thieno[2,3-d]pyrimidin-4-amine], the EC50 at human H1 and on human H4 was above 10 µM throughout.

Take `Cc1csc2ncnc(NCCN3CCCCC3)c12` [Example 107, 5-methyl-N-[2-(piperidin-1-yl)ethyl]thieno[2,3-d]pyrimidin-4-amine]: the EC50 on human H1 and on human H4 was above 10 µM each time.

As to `Cc1csc2ncnc(NCCN3CCOCC3)c12` [Example 109, 5-methyl-N-[2-(morpholin-4-yl)ethyl]thieno[2,3-d]pyrimidin-4-amine], the concentration giving a half-maximal response (EC50) at human H1 and on human H4 was above 10 µM throughout.

`Cc1ccc([C@@H](C)Nc2ncnc3scc(C)c23)cc1` [Example 115, 5-methyl-N-[(1R)-1-(4-methylphenyl)ethyl]thieno[2,3-d]pyrimidin-4-amine]: the EC50 on human H1 and on human H4 was above 10 µM each time.

Regarding `Cc1csc2ncnc(NC(C)Cc3ccncc3)c12` (stereo not drawn) [Example 120, 5-methyl-N-[1-(pyridin-4-yl)propan-2-yl]thieno[2,3-d]pyrimidin-4-amine], the EC50 on human H1 and on human H4 was above 10 µM in each case.

On to `Cc1csc2ncnc(NCCCN3CCCC3=O)c12` [Example 132, 1-[3-({5-methylthieno[2,3-d]pyrimidin-4-yl}amino)propyl]pyrrolidin-2-one], for which the EC50 on human H1 and at human H4 was above 10 µM in each case.

Take `Cc1csc2ncnc(NCCN(C(C)C)C(C)C)c12` [Example 137]: the EC50 on human H1 and at human H4 was above 10 µM throughout.

Take `Cc1csc2ncnc(NC3CCCc4ccccc43)c12` (stereo not drawn) [Example 138, 5-methyl-N-(1,2,3,4-tetrahydronaphthalen-1-yl)thieno[2,3-d]pyrimidin-4-amine]: the EC50 on human H1 and on human H4 was above 10 µM in each case.

With `COc1ccc(Nc2ncnc3scc(C)c23)cc1OC` [Example 147, N-(3,4-dimethoxyphenyl)-5-methylthieno[2,3-d]pyrimidin-4-amine], the concentration giving a half-maximal response (EC50) on human H1 and on human H4 was above 10 µM in each case.

In the case of `Cc1csc2ncnc(NC3CC(C)(C)NC(C)(C)C3)c12` [Example 150, 2,2,6,6-tetramethyl-N-{5-methylthieno[2,3-d]pyrimidin-4-yl}piperidin-4-amine], the concentration giving a half-maximal response (EC50) on human H1 and at human H4 was above 10 µM throughout.

Turning to `CCN(CC)CCCC(C)Nc1ncnc2scc(C)c12` (stereo not drawn) [Example 151, diethyl[4-({5-methylthieno[2,3-d]pyrimidin-4-yl}amino)pentyl]amine], the EC50 on human H1 and at human H4 was above 10 µM each time.

For the compound `Cc1csc2ncnc(N(CCC#N)Cc3ccccc3)c12` [Example 153, 3-[benzyl({5-methylthieno[2,3-d]pyrimidin-4-yl})amino]propanenitrile], the EC50 at human H1 and at human H4 was above 10 µM in each case.

On to `Cc1csc2ncnc(NCC3(O)CCCCC3)c12` [Example 158, 1-[({5-methylthieno[2,3-d]pyrimidin-4-yl}amino)methyl]cyclohexan-1-ol], for which the EC50 on human H1 and on human H4 was above 10 µM in each case.

For the compound `Cc1csc2ncnc(NCC(=O)c3ccccc3)c12` [Example 161, 2-({5-methylthieno[2,3-d]pyrimidin-4-yl}amino)-1-phenylethan-1-one], the EC50 at human H1 and at human H4 was above 10 µM each time.

Take `Cc1csc2ncnc(NCc3ccc(N(C)C)cc3)c12` [Example 170, N-{[4-(dimethylamino)phenyl]methyl}-5-methylthieno[2,3-d]pyrimidin-4-amine]: the EC50 at human H1 and on human H4 was above 10 µM in each case.

With `COc1ccc(CNc2ncnc3scc(C)c23)cc1O` [Example 171, 2-methoxy-5-[({5-methylthieno[2,3-d]pyrimidin-4-yl}amino)methyl]phenol], the 50% effective concentration (EC50) on human H1 and at human H4 was above 10 µM each time.

For the compound `Cc1csc2ncnc(NCc3ccccc3OC(F)(F)F)c12` [Example 172, 5-methyl-N-{[2-(trifluoromethoxy)phenyl]methyl}thieno[2,3-d]pyrimidin-4-amine], the 50% effective concentration (EC50) at human H1 and on human H4 was above 10 µM throughout.

Turning to `COc1ccc(C(=O)CNc2ncnc3scc(C)c23)cc1` [Example 174, 1-(4-methoxyphenyl)-2-({5-methylthieno[2,3-d]pyrimidin-4-yl}amino)ethan-1-one], the EC50 at human H1 and at human H4 was above 10 µM throughout.

With `Cc1ccc(S(=O)(=O)NCCNc2ncnc3scc(C)c23)cc1` [Example 177, 4-methyl-N-[2-({5-methylthieno[2,3-d]pyrimidin-4-yl}amino)ethyl]benzene-1-sulfonamide], the EC50 at human H1 and on human H4 was above 10 µM each time.

Take `Cc1csc2ncnc(N(C)C)c12` [Example 178, N,N,5-trimethylthieno[2,3-d]pyrimidin-4-amine]: the EC50 on human H1 and at human H4 was above 10 µM throughout.

On to `CCN(C)c1ncnc2scc(C)c12` [Example 179, N-ethyl-N,5-dimethylthieno[2,3-d]pyrimidin-4-amine], for which the EC50 on human H1 and on human H4 was above 10 µM throughout.

With `C#CCN(C)c1ncnc2scc(C)c12` [Example 180, N,5-dimethyl-N-(prop-2-yn-1-yl)thieno[2,3-d]pyrimidin-4-amine], the EC50 at human H1 and at human H4 was above 10 µM each time.

As for `CCN(CC)c1ncnc2scc(C)c12` [Example 181, N,N-diethyl-5-methylthieno[2,3-d]pyrimidin-4-amine], the concentration giving a half-maximal response (EC50) on human H1 and on human H4 was above 10 µM each time.
